Usually EC50 stands for the concentration giving half of the maximal effect.

Molecules are shown by their SMILES.

The target of this assay is T1, human RXFP1 (Homo sapiens, UniProt Q9HBX9).
T1 construct: expressed in transfected cells
T1 sequence (Q9HBX9 1-757): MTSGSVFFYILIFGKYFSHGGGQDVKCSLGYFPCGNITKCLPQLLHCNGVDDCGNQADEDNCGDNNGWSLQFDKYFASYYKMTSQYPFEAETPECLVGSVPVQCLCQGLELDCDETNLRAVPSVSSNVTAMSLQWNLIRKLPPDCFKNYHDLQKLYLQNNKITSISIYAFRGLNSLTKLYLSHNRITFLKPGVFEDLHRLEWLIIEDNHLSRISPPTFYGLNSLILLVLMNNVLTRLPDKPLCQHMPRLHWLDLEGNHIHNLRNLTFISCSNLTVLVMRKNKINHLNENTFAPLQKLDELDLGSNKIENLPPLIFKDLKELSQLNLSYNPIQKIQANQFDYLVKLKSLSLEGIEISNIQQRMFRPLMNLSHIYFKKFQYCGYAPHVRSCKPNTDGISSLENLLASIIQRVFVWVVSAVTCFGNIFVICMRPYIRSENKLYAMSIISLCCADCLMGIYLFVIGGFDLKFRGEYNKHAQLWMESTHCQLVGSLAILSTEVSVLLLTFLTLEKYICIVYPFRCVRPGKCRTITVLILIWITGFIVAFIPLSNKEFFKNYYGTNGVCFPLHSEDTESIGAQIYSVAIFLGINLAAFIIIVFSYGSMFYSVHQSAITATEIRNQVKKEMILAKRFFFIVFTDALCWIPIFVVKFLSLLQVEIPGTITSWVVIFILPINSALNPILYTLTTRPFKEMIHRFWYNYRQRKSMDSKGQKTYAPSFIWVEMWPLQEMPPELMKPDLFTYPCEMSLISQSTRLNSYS
Briefly: RXFP1 cAMP assay (hRXFP1 HEK293 cAMP assay, HTRF). It is filed as cell-based. The note with it: HEK293 cells stably expressing human RXFP1, 30 min at room temperature, read-out: cAMP hRXFP1 HEK293 Assay EC50. Put shortly: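 Potency and activity come from a four-parameter logistic fit of cAMP against compound concentration, tested from 0.010 nM up to 50 μM. The assay uses HEK293 cells stably expressing human RXFP1, incubated 30 min at ambient temperature with phosphodiesterase inhibitor IBMX present.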
Background: Changes in cAMP serve as a functional read-out for many G protein-coupled receptors.
Regarding `CCCOc1c(F)cc(C2=NOC3CC(CO)CC23)cc1C(=O)N[C@H]1[C@@H](C(=O)Nc2ccc(F)c(C(F)(F)F)c2)[C@H]2CC[C@@H]1/C2=C\C1CC1` (stereo partly shown) [compound 779], the EC50 amounted to 1.6 nM. The figure for `O=C(N[C@H]1[C@@H](C(=O)Nc2ccc(F)c(C(F)(F)F)c2)[C@H]2CC[C@@H]1/C2=C\C1CC1)c1cc(C2=NOC3COCC23)ccc1OCCC(F)(F)F` (stereo partly shown) [compound 780] is 1.8 nM; for `O=C(N[C@H]1[C@@H](C(=O)Nc2ccc(F)c(C(F)(F)F)c2)[C@H]2CC[C@@H]1/C2=C\C1CC1)c1cc(C2=NOC3CC(CO)CC23)ccc1OCC(F)F` (stereo partly shown) [compound 781] it is 2.7 nM. The figure for `CCCOc1c(F)cc(C2=NOC3CC(CO)CC23)cc1C(=O)N[C@H]1[C@@H](C(=O)Nc2ccc(F)c(C(F)(F)F)c2)[C@H]2CC[C@@H]1/C2=C\C1CC1` (stereo partly shown) [compound 782] is 3.2 nM; for `O=C(N[C@H]1[C@@H](C(=O)Nc2ccc(F)c(C(F)(F)F)c2)[C@H]2CC[C@@H]1/C2=C\C1CC1)c1cc(C2=NOC3CC(CO)CC23)ccc1OCC(F)F` (stereo partly shown) [compound 783] it is 3.4 nM. The figure for `O=C(N[C@H]1[C@@H](C(=O)Nc2ccc(F)c(C(F)(F)F)c2)[C@H]2CC[C@@H]1/C2=C\C1CC1)c1cc(C2=NOC3CC(CO)CC23)cc(F)c1OCCCF` (stereo partly shown) [compound 784] is 3.4 nM; for `O=C(N[C@H]1C(C(=O)Nc2ccc(F)c(C(F)(F)F)c2)[C@H]2CC[C@@H]1/C2=C\C1CC1)c1cc(C2=NOC3COCC23)ccc1OCC(F)F` (stereo partly shown) [compound 785] it is 4 nM. For the compound `O=C(N[C@H]1[C@@H](C(=O)Nc2ccc(F)c(C(F)(F)F)c2)[C@H]2CC[C@@H]1/C2=C\C1CC1)c1cc(C2=NOC3COCC23)ccc1OCCCF` (stereo partly shown) [compound 786], the EC50 was found to be 4 nM. The figure for `O=C(N[C@H]1[C@@H](C(=O)Nc2ccc(F)c(C(F)(F)F)c2)[C@H]2CC[C@@H]1/C2=C\C1CC1)c1cc(C2=NOC3CC(CO)CC23)ccc1OCCCF` (stereo partly shown) [compound 787] is 4.2 nM. With `O=C(N[C@H]1[C@@H](C(=O)Nc2ccc(F)c(C(F)(F)F)c2)[C@H]2CC[C@@H]1/C2=C\C1CC1)c1cc(C2=NOC3CC(CO)CC23)ccc1OCCCF` (stereo partly shown) [compound 788], the EC50 was found to be 4.3 nM. The figure for `O=C(N[C@H]1[C@@H](C(=O)Nc2ccc(F)c(C(F)(F)F)c2)[C@H]2CC[C@@H]1/C2=C\C1CC1)c1cc(C2=NOC3CC(CO)CC23)cc(F)c1OCC(F)F` (stereo partly shown) [compound 789] is 4.4 nM; for `CC(F)(F)COc1ccc(C2=NOC3COCC23)cc1C(=O)N[C@@H]1C2CCC(/C2=C/C2CC2)[C@@H]1C(=O)Nc1ccc(F)c(C(F)(F)F)c1` (stereo partly shown) [compound 790] it is 4.9 nM. The figure for `COc1c(F)cc(C2=NOC3COCC23)cc1C(=O)N[C@H]1[C@@H](C(=O)Nc2ccc(F)c(C(F)(F)F)c2)[C@H]2CC[C@@H]1/C2=C\C1CC1` (stereo partly shown) [compound 791] is 0.8 nM.

`COc1c(F)cc(C2=NOC3CC(CO)CC23)cc1C(=O)N[C@H]1[C@@H](C(=O)Nc2ccc(F)c(C(F)(F)F)c2)[C@H]2CC[C@@H]1/C2=C\CCC(F)(F)F` (stereo partly shown) [compound 792]: the EC50 is 1.4 nM.

Regarding `CCC/C=C1\[C@H]2CC[C@@H]1[C@H](C(=O)Nc1ccc(F)c(C(F)(F)F)c1)[C@@H]2NC(=O)c1cc(C2=NOC3CC(CO)CC23)cc(F)c1OC` (stereo partly shown) [compound 793], the EC50 was 2.2 nM. The figure for `O=C(N[C@H]1[C@@H](C(=O)Nc2ccc(F)c(C(F)(F)F)c2)[C@H]2CC[C@@H]1/C2=C\C1CC1)c1cc(C2=NOC3CC(CO)CC23)cc(F)c1OCC1CC1` (stereo partly shown) [compound 794] is 3.2 nM; for `COc1c(F)cc(C2=NOC3CC(CO)CC23)cc1C(=O)N[C@H]1[C@@H](C(=O)Nc2ccc(F)c(C(F)(F)F)c2)[C@H]2CC[C@@H]1/C2=C\CC(C)C` (stereo partly shown) [compound 796] it is 3.7 nM. The figure for `COc1c(C)cc(C2=NOC3CC(CO)CC23)cc1C(=O)N[C@H]1[C@@H](C(=O)Nc2ccc(F)c(C(F)(F)F)c2)[C@H]2CC[C@@H]1/C2=C\C1CC1` (stereo partly shown) [compound 797] is 4.1 nM.

On to `COc1c(Cl)cc(C2=NOC3CC(CO)CC23)cc1C(=O)N[C@H]1[C@@H](C(=O)Nc2ccc(F)c(C(F)(F)F)c2)[C@H]2CC[C@@H]1/C2=C\C1CC1` (stereo partly shown) [compound 798], for which the EC50 stood at 4.7 nM.

As to `O=C(N[C@H]1[C@@H](C(=O)Nc2ccc(F)c(C(F)(F)F)c2)[C@H]2CC[C@@H]1/C2=C\C1CC1)c1cc(C2=NOC3COCC23)cc(F)c1OCC1CC1` (stereo partly shown) [compound 799], the EC50 was determined as 4.7 nM.

With `CCC/C=C1\[C@H]2CC[C@@H]1[C@H](C(=O)Nc1ccc(F)c(C(F)(F)F)c1)[C@@H]2NC(=O)c1cc(C2=NOC3CC(CO)CC23)ccc1OC` (stereo partly shown) [compound 800], the EC50 is 1 nM. The figure for `COc1ccc(C2=NOC3COCC23)cc1C(=O)N[C@H]1[C@@H](C(=O)Nc2ccc(F)c(C(F)(F)F)c2)[C@H]2CC[C@@H]1/C2=C\c1cnoc1` (stereo partly shown) [compound 802] is 3 nM; for `COc1ccc(C2=NOC3CC(CO)CC23)cc1C(=O)N[C@H]1[C@@H](C(=O)Nc2ccc(F)c(C(F)(F)F)c2)[C@H]2CC[C@@H]1/C2=C\c1cncs1` (stereo partly shown) [compound 803] it is 3.5 nM; for `COc1ccc(C2=NOC3CC(CO)CC23)cc1C(=O)N[C@H]1[C@@H](C(=O)Nc2ccc(F)c(C(F)(F)F)c2)[C@H]2CC[C@@H]1/C2=C\c1cnc(C)s1` (stereo partly shown) [compound 804] it is 4 nM. The figure for `COc1ccc(C2=NOC3CC(CO)CC23)cc1C(=O)N[C@H]1[C@@H](C(=O)Nc2ccc(F)c(C(F)(F)F)c2)[C@H]2CC[C@@H]1/C2=C\c1csc(C)n1` (stereo partly shown) [compound 805] is 4.1 nM. For the compound `COc1ccc(C2=NOC3COCC23)cc1C(=O)N[C@H]1[C@@H](C(=O)Nc2ccc(F)c(C(F)(F)F)c2)[C@H]2CC[C@@H]1/C2=C\c1csc(C)n1` (stereo partly shown) [compound 806], the EC50 was 4.9 nM. The figure for `COc1ccc(C2=NOC3CC(CO)CC23)cc1C(=O)N[C@H]1[C@@H](C(=O)N[C@H](C)C2(C)CC2)[C@H]2CC[C@@H]1/C2=C\c1ccncn1` (stereo partly shown) [compound 807] is 2.1 nM; for `COc1cc(C)c(-c2nnc(CO)s2)cc1C(=O)N[C@H]1[C@@H](C(=O)Nc2ccc(F)c(C(F)(F)F)c2)[C@H]2CC[C@@H]1/C2=C\C1CC1` [compound 808] it is 4.2 nM. The figure for `COc1ccc(C2=NOC3CC(CO)CC23)cc1C(=O)N[C@H]1[C@@H](C(=O)Nc2ccc(F)c(C(F)(F)F)c2)[C@H]2CC[C@@H]1/C2=C\c1ccncn1` (stereo partly shown) [compound 809] is 4.6 nM; for `COc1cc(C)c(-c2nnc(CO)s2)cc1C(=O)N[C@H]1[C@@H](C(=O)N[C@H](C)C2(C)CC2)[C@H]2CC[C@@H]1/C2=C\C1CC1` [compound 810] it is 4.7 nM; for `COc1c(F)cc(C2=NOC3CC(CO)CC23)cc1C(=O)N[C@H]1[C@@H](C(=O)N[C@H](C)C2(C)CC2)[C@H]2CC[C@@H]1/C2=C\C1CCCC1` (stereo partly shown) [compound 811] it is 0.6 nM. The figure for `COc1ccc(C2=NO[C@H]3C[C@H](CO)C[C@@H]23)cc1C(=O)N[C@H]1[C@@H](C(=O)N[C@H](C)C2(C)CC2)[C@H]2CC[C@@H]1/C2=C\CCC(F)(F)F` [compound 812] is 0.8 nM; for `COc1c(F)cc(C2=NOC3CC(CO)CC23)cc1C(=O)N[C@H]1[C@@H](C(=O)N[C@H](C)C2(C)CC2)[C@H]2CC[C@@H]1/C2=C\C1CC(F)(F)C1` (stereo partly shown) [compound 813] it is 1 nM; for `COc1ccc(C2=NO[C@H]3CC(CO)C[C@@H]23)cc1C(=O)N[C@H]1[C@@H](C(=O)Nc2ccc(F)c(C(F)(F)F)c2)[C@H]2CC[C@@H]1/C2=C\CCF` (stereo partly shown) [compound 814] it is 1.2 nM.

(Values after patent US20250221966A1, “RXFP1 AGONISTS” (BRISTOL-MYERS SQUIBB COMPANY, priority 2021, published 2025).)
